According to PubChem BioAssay (NCI):
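Values below derive from 48-hour exposures of cells grown in 96-well plates, with endpoints linearly interpolated between the two concentrations bracketing the appropriate inhibition level. TGI denotes the concentration required for complete inhibition of growth.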

Columns and labels:
Test in all cases: DTP human tumour cell line panel, 48 h
SK-MEL-5 melanoma = test system: SK-MEL-5 melanoma
SF-295 CNS = test system: SF-295 CNS
EKVX NSCLC = test system: EKVX NSCLC
HL-60(TB) leukemia = test system: HL-60(TB) leukemia
RXF 393 renal = test system: RXF 393 renal
A498 renal = test system: A498 renal
HS 578T breast = test system: HS 578T breast
SK-MEL-2 melanoma = test system: SK-MEL-2 melanoma
MCF7 breast = test system: MCF7 breast
NCI/ADR-RES ovarian = test system: NCI/ADR-RES ovarian
IGROV1 ovarian = test system: IGROV1 ovarian
SW-620 colon = test system: SW-620 colon
TK-10 renal = test system: TK-10 renal
BT-549 breast = test system: BT-549 breast
NCI-H460 lung = test system: NCI-H460 lung
OVCAR-5 ovarian = test system: OVCAR-5 ovarian
OVCAR-8 ovarian = test system: OVCAR-8 ovarian
UACC-257 melanoma = test system: UACC-257 melanoma
HOP-92 NSCLC = test system: HOP-92 NSCLC
NCI-H23 lung = test system: NCI-H23 lung
DU-145 prostate = test system: DU-145 prostate
A549 NSCLC = test system: A549 NSCLC
MALME-3M melanoma = test system: MALME-3M melanoma
ACHN renal = test system: ACHN renal
MOLT-4 leukemia = test system: MOLT-4 leukemia
SR leukemia = test system: SR leukemia
SNB-19 CNS = test system: SNB-19 CNS
M14 melanoma = test system: M14 melanoma
SK-OV-3 ovarian = test system: SK-OV-3 ovarian
UO-31 renal = test system: UO-31 renal
T-47D breast = test system: T-47D breast
PC-3 prostate = test system: PC-3 prostate
SN12C renal = test system: SN12C renal
HCT-15 colon = test system: HCT-15 colon
MDA-MB-435 = test system: MDA-MB-435
MDA-MB-231 breast = test system: MDA-MB-231 breast
CAKI-1 renal = test system: CAKI-1 renal
KM12 colon = test system: KM12 colon
OVCAR-3 ovarian = test system: OVCAR-3 ovarian
786-0 renal = test system: 786-0 renal
UACC-62 melanoma = test system: UACC-62 melanoma
RPMI-8226 leukemia = test system: RPMI-8226 leukemia
OVCAR-4 ovarian = test system: OVCAR-4 ovarian
NCI-H522 lung = test system: NCI-H522 lung
LOX IMVI melanoma = test system: LOX IMVI melanoma
HOP-62 NSCLC = test system: HOP-62 NSCLC
COLO 205 colon = test system: COLO 205 colon
SNB-75 CNS = test system: SNB-75 CNS
HCC-2998 colon = test system: HCC-2998 colon
U251 CNS = test system: U251 CNS
HT29 colon = test system: HT29 colon
HCT-116 colon = test system: HCT-116 colon
SK-MEL-28 melanoma = test system: SK-MEL-28 melanoma
SF-268 CNS = test system: SF-268 CNS

Compound `c1ccc(CSSSCc2ccccc2)cc1` has a TGI (SK-MEL-5 melanoma) of 15.3 µM, a TGI (SF-295 CNS) of 49.8 µM and a TGI (EKVX NSCLC) greater than 100 µM. For the same compound, the TGI (HL-60(TB) leukemia) was 3.22 µM, the TGI (RXF 393 renal) was 14.8 µM and the TGI (A498 renal) was greater than 100 µM. For the same compound, the TGI (HS 578T breast) was greater than 31 µM, the TGI (SK-MEL-2 melanoma) was 8.36 µM and the TGI (MCF7 breast) was greater than 42.1 µM. The TGI (NCI/ADR-RES ovarian) was 9.78 µM, the TGI (IGROV1 ovarian) was greater than 90.9 µM and the TGI (SW-620 colon) was greater than 51.9 µM. It also gave a TGI (TK-10 renal) greater than 73.9 µM, a TGI (BT-549 breast) of 19.8 µM and a TGI (NCI-H460 lung) of 16.2 µM. The TGI (OVCAR-5 ovarian) was 41.2 µM, the TGI (OVCAR-8 ovarian) was greater than 41.2 µM and the TGI (UACC-257 melanoma) was greater than 95.4 µM. It also gave a TGI (HOP-92 NSCLC) greater than 92.7 µM, a TGI (NCI-H23 lung) greater than 48.5 µM and a TGI (DU-145 prostate) of 4.97 µM. For the same compound, the TGI (A549 NSCLC) was greater than 100 µM, the TGI (MALME-3M melanoma) was greater than 100 µM and the TGI (ACHN renal) was 29.1 µM. It also gave a TGI (MOLT-4 leukemia) greater than 100 µM, a TGI (SR leukemia) of 87.3 µM and a TGI (SNB-19 CNS) greater than 100 µM. It also gave a TGI (M14 melanoma) greater than 100 µM, a TGI (SK-OV-3 ovarian) of 22.9 µM and a TGI (UO-31 renal) of 37.1 µM. The TGI (T-47D breast) was greater than 64.5 µM, the TGI (PC-3 prostate) was greater than 100 µM and the TGI (SN12C renal) was 18 µM. It also gave a TGI (HCT-15 colon) greater than 100 µM, a TGI (MDA-MB-435) of 2.83 µM and a TGI (MDA-MB-231 breast) of 23.7 µM. It also gave a TGI (CAKI-1 renal) of 22.6 µM, a TGI (KM12 colon) greater than 100 µM and a TGI (OVCAR-3 ovarian) of 2.98 µM. The TGI (786-0 renal) was 12.8 µM, the TGI (UACC-62 melanoma) was 16.1 µM and the TGI (RPMI-8226 leukemia) was 10.8 µM. For the same compound, the TGI (OVCAR-4 ovarian) was 38 µM, the TGI (NCI-H522 lung) was 3.33 µM and the TGI (LOX IMVI melanoma) was 17.4 µM. It also gave a TGI (HOP-62 NSCLC) of 5.03 µM, a TGI (COLO 205 colon) of 11.6 µM and a TGI (SNB-75 CNS) of 39.4 µM. It also gave a TGI (HCC-2998 colon) of 17.8 µM, a TGI (U251 CNS) of 17.1 µM and a TGI (HT29 colon) of 19.6 µM. For the same compound, the TGI (HCT-116 colon) was 12.1 µM, the TGI (SK-MEL-28 melanoma) was greater than 100 µM and the TGI (SF-268 CNS) was 31.4 µM.
